Experimental data taken from patent US10526580B2, “Differentiated cell population of endothelial cells derived from human pluripotent stem cells, composition, system, kit and uses thereof” (BIOCANT-ASSOCIAÇÃO DE TRANSFERÊNCIA DE TECNOLOGIA, priority 2012, dated 2020).
Where a name gives a salt, the structure may show the parent alone. Read-outs that look alike come from different tables or passages of the source.

Tested on: hESC-derived ECs versus ACL cells
Assay: High-throughput screening of LOPAC library, PrestoBlue cell viability, hESC-derived ECs versus ACL cells
Assay type: cell-based, human
Experimental: High-throughput screening (HTS). HUAECS (Lonza) and hESC-derived ECs were cultured in EGM-2 medium while human anterior cruciate ligament cells (ACL cells) were cultured in Dulbecco's modified Eagle's medium (DMEM; PAA) supplemented with 10% FBS, 0.2 mM ascorbic acid 2-phosphate magnesium salt (Sigma Aldrich), […] streptomycin and 100 U/mL penicillin (Life Technologies). ACL cells were isolated from patients that have signed an informed consent form, in compliance with the Dutch legislation. The ethical committee of Medisch Spectrum Twente Hospital approved the collection.
The LOPAC library (Sigma-Aldrich) was used to screen embryonic endothelial-specific cytotoxic compounds. The compounds were solubilized in DMSO. The final compound concentration used in the screen was 4.5 μM in a final volume of 200 μL per well (96-well plate). HUAECs, hESC-derived EC and ACL cells were seeded at 16,000 cells/well (HUAECs and hESC-derived ECs) and 5,000 cells/well (ACL cells) and allowed to reach near confluence (approximately two days). After two days, medium was exchanged and test compounds and controls were added to the 96-well plates (all wells contained 0.25% (v/v) DMSO). After 4 days of incubation, cell viability was assessed using a PrestoBlue (Invitrogen) assay. This assay is based on a resazurin-based solution that indicates the reducing power of living cells and therefore measures indirectly their number. For each measurement, cell medium was removed and the PrestoBlue solution (10%) was added for 3 h at 37° C. upon which the absorbance was measured at 560-590 nm.
Disruption of vascular development has been directly correlated with prenatal loss, malformations and neurodevelopmental problems^41-44. […] The library was screened at a single dosage of 4.5 μM in a volume of 200 μL per well of EGM-2 medium, containing 0.25% DMSO (v/v). […] Six compounds (danazol, chlorpromazine hydrochloride, ellipticine, 3′,4′-dichlorobenzamil, fluphenazine dihydrochloride and 7-cyclopentyl-5-(4-phenoxy)phenyl-7H-pyrrolo[2,3-d]pyrimidin-4-ylamine) affected cell viability in both cells by a difference of 20% (FIG. 4B). The six compounds belong to different classes: cell cycle, ion pumps, dopamine pathway, phosphorylation and hormone signaling. The compounds selected from the primary screen were then tested against hESC-derived ECs and HUAECs at eight different concentrations to obtain a dose-response curve (FIG. 4C and FIG. 14).

[1] = LOPAC screen, 4.5 μM, 4 days of incubation, PrestoBlue assay

Row | Compound | Differences (%) in cell viability (hESC-Derived ECs versus ACL cells) [1] | Differences (%) in cell viability (hESC-Derived ECs versus ACL cells)
1 | CC(C)[C@H]1c2ccc(F)cc2CC[C@@]1(CCN(C)CCCc1nc2ccccc2[nH]1)OC(=O)C1CC1 [NNC 55-0396] | 98.4% | –
2 | O=C(Nc1ccc([N+](=O)[O-])cc1Cl)c1cc(Cl)ccc1O [Niclosamide] | 97.6% | –
3 | COC(=O)Nc1nc2ccc(C(=O)c3cccs3)cc2[nH]1 [Nocodazole] | 76.4% | –
4 | C[C@@H]1O[C@@H](O[C@H]2C[C@@H](O)[C@]3(CO)[C@H]4[C@H](O)C[C@]5(C)[C@@H](C6=CC(=O)OC6)CC[C@]5(O)[C@@H]4CC[C@]3(O)C2)[C@H](O)[C@H](O)[C@H]1O [Ouabain] | 94.6% | –
5 | COc1cc([C@@H]2c3cc4c(cc3[C@H](O)[C@H]3COC(=O)[C@H]23)OCO4)cc(OC)c1OC [Podophyllotoxin] | 75.7% | –
6 | CCC(=O)c1ccc2c(c1)N(CCCN(C)C)c1ccccc1S2 [Propionylpromazine hydrochloride] | 50.3% | –
7 | CCN(CC)C(=O)N[C@H]1C[C@@H]2c3cccc4[nH]cc(c34)C[C@H]2N(C)C1 [R(+)-Terguride] | 57.1% | –
8 | Cc1nc2n(c(=O)c1CCN1CCC(c3noc4cc(F)ccc34)CC1)CCCC2 [Risperidone] | 56.9% | –
9 | CC(=O)c1c(O)c(C)c(O)c(Cc2c(O)c3c(c(C(=O)/C=C/c4ccccc4)c2O)OC(C)(C)C=C3)c1O [Rottlerin] | 61.6% | –
10 | CCCN1CCC[C@@H](c2cccc(O)c2)C1.Cl [S(−)-3PPP hydrochloride] | 51.8% | –
11 | N[C@@H](Cn1cc(I)c(=O)[nH]c1=O)C(=O)O [S-5-lodowillardiine] | 52.8% | –
12 | [N-]=[N+]=Nc1ccc(C(=O)CSC[C@H](NC(=O)CC[C@H](N)C(=O)O)C(=O)NCC(=O)O)cc1 [S-(p-Azidophenacyl)glutathione] | 61.3% | –
13 | Cc1nc(-c2ccc(-c3ccc(C(=O)N4CCc5cc6c(cc54)C4(CCN(C)CC4)CO6)cc3)c(C)c2)no1 [SB 224289 hydrochloride] | 96.7% | –
14 | COc1cc2c(cc1C(F)(F)F)N(C(=O)Nc1cc(F)cc(-c3cccnc3)c1)CC2 [SB 228357] | 62.7% | –
15 | Br.CN=c1nc(-c2ccccc2)n(-c2ccccc2)s1 [SCH-202676 hydrobromide] | 53.2% | –
16 | COc1ccc(CCCOC(Cn2ccnc2)c2ccc(OC)cc2)cc1 (stereo not drawn) [SKF 96365] | 69.8% | –
17 | O=C(O)c1ccccc1Nc1cccc(OCc2ccc3ccccc3n2)c1 [SR 2640] | 53.0% | –
18 | CN(C)S(=O)(=O)c1ccc2c(c1)/C(=C/c1cc3c([nH]1)CCCC3)C(=O)N2 [SU 6656] | 61.5% | –
19 | C[n+]1cc2c3c(ccc2c2ccc4cc5c(cc4c21)OCO5)OCO3 [Sanguinarine chloride] | 96.4% | –
20 | C/C(=C\c1ccc(C(=O)O)cc1)c1ccc2c(c1)C(C)(C)CCC2(C)C [TTNPB] | 92.6% | –

Row | Compound | Differences (%) in cell viability (hESC-Derived ECs versus ACL cells) [1] | Differences (%) in cell viability (hESC-Derived ECs versus ACL cells)
21 | CC/C(=C(\c1ccccc1)c1ccc(OCCN(C)C)cc1)c1ccccc1 [Tamoxifen citrate] | 98.3% | –
22 | CC(=O)O[C@H]1C(=O)[C@@]2(C)[C@H]([C@H](OC(=O)c3ccccc3)[C@]3(O)C[C@H](OC(=O)[C@H](O)[C@@H](NC(=O)c4ccccc4)c4ccccc4)C(C)=C1C3(C)C)[C@]1(OC(C)=O)CO[C@@H]1C[C@@H]2O [Taxol] | 78.1% | –
23 | Cc1scc2c1N(C(=O)CN1CCN(C)CC1)c1ccccc1NC2=O [Telenzepine dihydrochloride] | 68.9% | –
24 | CC(C)(C)c1ccc(C(O)CCCN2CCC(C(O)(c3ccccc3)c3ccccc3)CC2)cc1 (stereo not drawn) [Terfenadine] | 98.3% | –
25 | C/C=C(/C)C(=O)O[C@H]1C(C)=C2[C@H]([C@@H]1OC(=O)CCCCCCC)[C@@](C)(OC(C)=O)C[C@H](OC(=O)CCC)[C@@]1(O)[C@H]2OC(=O)[C@@]1(C)O [Thapsigargin] | 94.8% | –
26 | CSc1ccc2c(c1)N(CCC1CCCCN1C)c1ccccc1S2 (stereo not drawn) [Thioridazine hydrochloride] | 51.6% | –
27 | CNCC[C@@H](Oc1ccccc1C)c1ccccc1 [Tomoxetine] | 68.7% | –
28 | COc1cc2c(cc1OC)-c1c/c(=N\c3c(C)cc(C)cc3C)n(C)c(=O)n1CC2 [Trequinsin hydrochloride] | 50.7% | –
29 | CN1CCN(CCCN2c3ccccc3Sc3ccc(C(F)(F)F)cc32)CC1 [Trifluoperazine dihydrochloride] | 54.0% | –
30 | CN(C)CCCN1c2ccccc2Sc2ccc(C(F)(F)F)cc21 [Triflupromazine hydrochloride] | 53.0% | –
31 | CC(C)(C)c1cc(C=C(C#N)C#N)cc(C(C)(C)C)c1O [Tyrphostin A9] | 69.5% | –
32 | N#C/C(=C\c1ccc(O)c(O)c1)C(=O)NCc1ccccc1 [Tyrphostin AG 490] | 56.3% | –
33 | C[C@@H](NC(=O)/C(C#N)=C/c1ccc(O)c(O)c1)c1ccccc1 [Tyrphostin AG 527] | 53.4% | –
34 | N#C/C(=C\c1ccc(O)c(O)c1)C(=O)NCCCNC(=O)/C(C#N)=C/c1ccc(O)c(O)c1 [Tyrphostin AG 537] | 52.3% | –
35 | CC(C)(C)c1cc(/C=C(\C#N)C(N)=S)cc(C(C)(C)C)c1O [Tyrphostin AG 879] | 54.4% | –
36 | N#CC(=C(/N)Sc1ccccc1N)/C(C#N)=C(\N)Sc1ccccc1N [U0126] | – | 68.9%
37 | C[C@]12C=CC(=O)C=C1CC[C@@H]1C2=CC[C@]2(C)[C@@H](C(=O)CN3CCN(c4cc(N5CCCC5)nc(N5CCCC5)n4)CC3)CC[C@@H]12.O=C(O)/C=C\C(=O)O [U-74389G maleate] | 51.6% | –
38 | Cc1c(C)c2c(c(C)c1O)CCC(C)(CN1CCN(c3cc(N4CCCC4)nc(N4CCCC4)n3)CC1)O2.Cl.Cl (stereo not drawn) [U-83836 dihydrochloride] | 51.3% | –
39 | CC[C@]1(O)C[C@H]2CN(CCc3c([nH]c4ccccc34)[C@@](C(=O)OC)(c3cc4c(cc3OC)N(C=O)[C@H]3[C@@](O)(C(=O)OC)[C@H](OC(C)=O)[C@]5(CC)C=CCN6CC[C@]43[C@@H]65)C2)C1 [Vincristine sulfate] | 89.2% | –
